The target in series [1] is T1, Antithrombin-III (Homo sapiens, UniProt P01008). Nature of the series: (§1) Antithrombin III (ATIII)-mediated anti-Xa activity was determined.
Series [2] has as its target T1, Antithrombin-III. The description is as §1. The source holds these as a separate data set.
Another series concerns the target Prothrombin (Homo sapiens, UniProt P00734). As to the kind of experiment: In vitro anti-thrombin activity was determined.
Series [3] can be described thus: In vitro half life in rat. The following applies: in vivo.
Series [4] concerns the target T1, Antithrombin-III. As to the kind of experiment: In vitro antithrombin III (ATIII)-mediated anti-Xa activity was determined.

SMILES strings stand for the structures. pIC50: −log10 of the molar value.

T1 sequence (P01008 whole entry): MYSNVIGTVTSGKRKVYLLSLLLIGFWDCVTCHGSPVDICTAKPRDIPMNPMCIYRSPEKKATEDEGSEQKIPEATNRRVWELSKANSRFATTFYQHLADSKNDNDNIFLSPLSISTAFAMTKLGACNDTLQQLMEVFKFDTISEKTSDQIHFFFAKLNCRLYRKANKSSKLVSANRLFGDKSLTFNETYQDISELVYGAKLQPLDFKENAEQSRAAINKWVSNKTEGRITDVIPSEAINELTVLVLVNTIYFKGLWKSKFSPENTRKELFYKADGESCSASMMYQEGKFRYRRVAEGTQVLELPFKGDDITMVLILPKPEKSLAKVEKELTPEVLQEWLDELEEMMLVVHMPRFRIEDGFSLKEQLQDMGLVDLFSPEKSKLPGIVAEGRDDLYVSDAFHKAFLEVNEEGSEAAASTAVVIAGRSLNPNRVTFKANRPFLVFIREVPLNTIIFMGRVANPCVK

As for `CO[C@@H]1OC(COS(=O)(=O)O)[C@H](O[C@@H]2OC(C(=O)O)[C@H](O[C@@H]3OC(COS(=O)(=O)O)[C@H](O[C@@H]4OC(C(=O)O)[C@H](O[C@@H]5OC(COS(=O)(=O)O)[C@@H](O)[C@@H](OS(=O)(=O)O)C5OS(=O)(=O)O)[C@@H](OC)C4OS(=O)(=O)O)[C@@H](OS(=O)(=O)O)C3OS(=O)(=O)O)[C@@H](OC)C2OS(=O)(=O)O)[C@@H](OS(=O)(=O)O)C1OS(=O)(=O)O` (stereo not given in full), at Antithrombin-III [1], the Activity came out at 1160 U mg-1. `N=C(N)c1ccc(C[C@@H](NC(=O)CNS(=O)(=O)c2ccc3ccccc3c2)C(=O)N2CCCCC2)cc1`: at Antithrombin-III [2], the pIC50 – broadly, the negative decadic logarithm of the IC50, by convention in mol/L – is 6.24. With `CO[C@H]1O[C@H](COS(=O)(=O)O)[C@@H](O[C@@H]2O[C@@H](C(=O)O)[C@@H](O[C@H]3O[C@H](COS(=O)(=O)O)[C@@H](O[C@@H]4O[C@H](C(=O)O)[C@@H](O[C@H]5O[C@H](COS(=O)(=O)O)[C@@H](OCCOCCOCCOCCNC(=O)c6ccc(NC(=O)CSC[C@H](NS(=O)(=O)c7ccc8ccccc8c7)C(=O)NC(Cc7ccc(C(=N)N)cc7)C(=O)N7C=CCCC7)cc6)[C@H](OS(=O)(=O)O)[C@H]5OS(=O)(=O)O)[C@H](OC)[C@H]4OS(=O)(=O)O)[C@H](OS(=O)(=O)O)[C@H]3OS(=O)(=O)O)[C@H](OC)[C@H]2OS(=O)(=O)O)[C@H](OS(=O)(=O)O)[C@H]1OS(=O)(=O)O` (stereo not given in full), the pIC50 against Prothrombin was 6.46. Besides, the half-life (usually the time needed for the level to fall by half in the phase considered) in series [3] is 1.5 h. This compound showed an Activity on Antithrombin-III [4] of 885 U mg-1.

Values taken from ChEMBL document CHEMBL1131796, “Design and synthesis of a novel synthetic NAPAP-penta-saccharide conjugate displaying a dual antithrombotic action” (Bioorg Med Chem Lett, 1999).
